From patent EP3915971A1, “PHENYL-S(O)N-PHENYLAMIDINES AND THE USE THEREOF AS FUNGICIDES” (Bayer Aktiengesellschaft, priority 2020, dated 2021)

Columns and labels:
[1] = LogP measurement by HPLC on reversed phase columns (EEC directive 79/831 Annex V.A8); type: physicochemical
Protocol: Measurement of LogP values was performed according to EEC directive 79/831 Annex V.A8 by HPLC (High Performance Liquid Chromatography) on reversed phase columns with the following methods: • ^[a] LogP value is determined by measurement of LC-UV, in an acidic range, with 0.1% formic acid in water and acetonitrile as eluent (linear gradient from 10% acetonitrile to 95% acetonitrile). • ^[b] LogP value is determined by measurement of LC-UV, in a neutral range, with 0.001 molar ammonium acetate solution in water and acetonitrile as eluent (linear gradient from 10% acetonitrile to 95% acetonitrile). • ^[c] LogP value is determined by measurement of LC-UV, in an acidic range, with 0.1% phosphoric acid and acetonitrile as eluent (linear gradient from 10% acetonitrile to 95% acetonitrile).
If more than one LogP value is available within the same method, all the values are given and separated by "+". […]

Phakospora pachyrhizi = experiment: in vivo preventive test on Phakospora pachyrhizi (soybean rust); conditions: for pest or weed control at 500 ppm: Glycine max, 264 h, 500 ppm of active ingredient, preventive spray on young soybean plants, inoculation after 24 hours, evaluated 11 days after inoculation, 0% = control plants, 100% = no disease, read-out: efficacy
Protocol: Example A: in vivo preventive test on Phakospora pachyrhizi (soybean rust) [table] The active ingredients were made soluble and homogenized in a mixture of Dimethyl sulfoxide/Acetone/ /Tween® 80 and then diluted in water to the desired concentration. The young plants of soybean were treated by spraying the active ingredient prepared as described above. Control plants were treated only with an aqueous solution of Acetone/Dimethyl sulfoxide/ Tween® 80. After 24 hours, the plants were contaminated by spraying the leaves with an aqueous suspension of Phakospora pachyrhizi spores. The contaminated soybean plants were incubated for 24 hours at 24°C and at 100% relative humidity and then for 10 days at 24°C and at 70-80% relative humidity. The test was evaluated 11 days after the inoculation. 0% means an efficacy which corresponds to that of the control plants while an efficacy of 100% means that no disease was observed.

[2] = reversed phase HPLC columns, method [a]: LC-UV, acidic range, 0.1% formic acid in water and acetonitrile as eluent (linear gradient 10% to 95% acetonitrile)
[3] = method [a]: LC-UV, acidic range, 0.1% formic acid in water and acetonitrile as eluent (linear gradient 10% to 95% acetonitrile)
[4] = reversed phase HPLC columns, method [b]: LC-UV, neutral range, 0.001 molar ammonium acetate solution in water and acetonitrile as eluent (linear gradient 10% to 95% acetonitrile)

SMILES	chromatographic logP [1, 2]	other results
CCN(C)C=Nc1cc(Br)c(Sc2ccccc2F)cc1C [Example I-046, N'-[5-bromo-4-[(2-fluorophenyl)thio]-2-methylphenyl]-N-ethyl-N-methylmethanimidamide]	1.66	pest or weed control at 500 ppm (Phakospora pachyrhizi): ≥ 70%
CCN(C)C=Nc1cc(C#N)c(Sc2ccccc2C)cc1C [Example I-058, N'-[5-cyano-2-methyl-4-[(2-methylphenyl)thio]phenyl]-N-ethyl-N-methylmethanimidamide]	1.61	pest or weed control at 500 ppm (Phakospora pachyrhizi): ≥ 70%
CCN(C)C=Nc1cc(Br)c(Sc2ccccc2)cc1C [Example I-039, N'-(5-bromo-2-methyl-4-phenylsulfanylphenyl)-N-ethyl-N-methylmethanimidamide]	1.66	pest or weed control at 500 ppm (Phakospora pachyrhizi): ≥ 70%
CCN(C)C=Nc1cc(C)c(Sc2ccccc2F)cc1C(C)C [Example I-082, N-ethyl-N'-[4-[(2-fluorophenyl)thio]-2-isopropyl-5-methylphenyl]-N-methylmethanimidamide]	1.9	pest or weed control at 500 ppm (Phakospora pachyrhizi): ≥ 70%
CCN(C)C=Nc1cc(C)c([S+]([O-])c2ccccc2C#N)cc1C (stereo not shown) [Example I-052, N'-[4-(2-cyanophcnyl)sulfinyl-2,5-dimethylphenyl]-N-ethyl-N-methylmethanimidamide]	–	chromatographic logP [1, 3]: 0.73; efficacy (Phakospora pachyrhizi; 500 ppm): at least 70%
CCN(C)C=Nc1cc(C)c(Sc2ccccc2C#N)cc1C(C)C [Example I-101, N'-[4-[(2-cyanophenyl)thio]-2-isopropyl-5-methylphenyl]-N-ethyl-N-methylmethanimidamide]	1.72	chromatographic logP [1, 4]: 5.3; pest or weed control at 500 ppm (Phakospora pachyrhizi): ≥ 70%
CCN(C)C=Nc1cc(Br)c(Sc2ccccc2C#N)cc1C [Example I-068, N'-[5-bromo-4-[(2-cyanophenyl)thio]-2-methylphenyl]-N-ethyl-N-methylmethanimidamide]	1.53	pest or weed control at 500 ppm (Phakospora pachyrhizi): ≥ 70%
CCc1cc(Sc2ccccc2Cl)c(C)cc1N=CN(C)CC [Example I-103, N'-[4-[(2-chlorophenyl)thio]-2-ethyl-5-methylphenyl]-N-ethyl-N-methylmethanimidamide]	1.99	chromatographic logP [1, 4]: 6.2; pest or weed control at 500 ppm (Phakospora pachyrhizi): ≥ 70%
CCN(C)C=Nc1cc(C)c(Sc2ccccc2F)cc1Br [Example I-077, N'-[2-bromo-4-[(2-fluorophenyl)thio]-5-methylphenyl]-N-ethyl-N-methylmethanimidamide]	1.75	pest or weed control at 500 ppm (Phakospora pachyrhizi): ≥ 70%
CCN(C)C=Nc1cc(Br)c([S+]([O-])c2ccccc2C#N)cc1C (stereo not shown) [Example I-064, N'-[5-bromo-4-(2-cyanophenyl)sulfinyl-2-methylphenyl]-N-ethyl-N-methylmethanimidamide]	0.93	–
CCN(C)C=Nc1cc(C)c([S+]([O-])c2ccccc2Cl)cc1C (stereo not shown) [Example I-010, N'-[4-(2-chlorophenyl)sulfinyl-2,5-dimethylphenyl]-N-ethyl-N-methylmethanimidamide]	0.97	–
CCN(C)C=Nc1cc(C)c([S+]([O-])c2ccccc2F)cc1C (stereo not shown) [Example I-011, N-ethyl-N'-[4-(2-fluorophenyl)sul6nyl-2,5-dimethylphenyl]-N-methylmethanimidamide]	–	chromatographic logP [1, 3]: 0.78
CCN(C)C=Nc1cc(Cl)c(S(=O)(=O)c2ccccc2C)cc1C [Example I-034, N'-[5-chloro-2-methyl-4-(2-methylphenyl)sulfonylphenyl]-N-ethyl-N-methylmethanimidamide]	1.5	–
CCN(C)C=Nc1cc(C)c(S(=O)(=O)c2ccccc2F)cc1C [Example I-017, N-ethyl-N'-[4-(2-fluorophenyl)sulfonyl-2,5-dimethylphenyl]-N-methylmethanimidamide]	1.07	–
CCN(C)C=Nc1cc(Cl)c([S+]([O-])c2ccccc2C#N)cc1C (stereo not shown) [Example I-051, N'-[5-chloro-4-(2-cyanophenyl)sulfinyl-2-methylphenyl]-N-ethyl-N-methylmethanimidamide]	0.87	–
CCN(C)C=Nc1cc(C)c([S+]([O-])c2ccccc2F)cc1Cl (stereo not shown) [Example I-014, N'-[2-chloro-4-(2-fluorophenyl)sulfinyl-5-methylphenyl]-N-ethyl-N-methylmethanimidamide]	0.94	–

SMILES	chromatographic logP [1, 2]	other results
CCc1cc([S+]([O-])c2ccccc2F)c(C)cc1N=CN(C)CC (stereo not shown) [Example I-076, N-ethyl-N'-[2-ethyl-4-(2-fluorophenyl)sulfinyl-5-methylphenyl]-N-methylmethanimidamide]	1	–
CCN(C)C=Nc1cc(C)c([S+]([O-])c2ccccc2C)cc1C(C)C (stereo not shown) [Example I-073, N-ethyl-N'-[2-isopropyl-5-methyl-4-(2-methylphenyl)sulfinylphenyl]-N-methylmethanimidamide]	1.18	–
CCN(C)C=Nc1cc(C)c(S(=O)(=O)c2ccccc2C)cc1C(C)C [Example I-094, N-ethyl-N'-[2-isopropyl-5-methyl-4-(2-methylphenyl)sulfonylphenyl]-N-methylmethanimidamide]	1.58	–
CCN(C)C=Nc1cc(C)c(S(=O)(=O)c2ccccc2C)cc1C(F)(F)F [Example I-092, N-ethyl-N-methyl-N'-[5-methyl-4-(2-methylphenyl)sulfonyl-2-(trifluoromethyl)phenyl]methanimidamide]	3.76	–
CCN(C)C=Nc1cc(C)c([S+]([O-])c2ccccc2F)cc1C(C)C (stereo not shown) [Example I-086, N-ethyl-N'-[4-(2-fluorophenyl)sulfinyl-2-isopropyl-5-methylphenyl]-N-methylmethanimidamide]	1.15	–
CCN(C)C=Nc1cc(C)c([S+]([O-])c2ccccc2F)cc1C1CC1 (stereo not shown) [Example I-089, N'-[2-cyclopropyl-4-(2-fluorophenyl)sulfinyl-5-methylphenyl]-N-ethyl-N-methylmethanimidamide]	1.04	–
CCN(C)C=Nc1cc(Cl)c([S+]([O-])c2ccccc2F)cc1C (stereo not shown) [Example I-030, N'-[5-chloro-4-(2-fluorophenyl)sulfinyl-2-methylphenyl]-N-ethyl-N-methylmethanimidamide]	1.03	–
CCN(C)C=Nc1cc(C)c(S(=O)(=O)c2ccccc2)cc1C1CC1 [Example I-095, N'-[4-(benzenesulfonyl)-2-cyclopropyl-5-methylphenyl]-N-ethyl-N-methylmethanimidamide]	1.24	–
CCN(C)C=Nc1cc(C#N)c([S+]([O-])c2ccccc2C)cc1C (stereo not shown) [Example I-057, N'-[5-cyano-2-methyl-4-(2-methylphenyl)sulfinylphenyl]-N-ethyl-N-methylmethanimidamide]	1.28	–
CCN(C)C=Nc1cc(C)c([S+]([O-])c2ccccc2C)cc1C1CC1 (stereo not shown) [Example I-074, N'-[2-cyclopropyl-5-methyl-4-(2-methylphenyl)sulfinylphenyl]-N-ethyl-N-methylmethanimidamide]	1.07	–
CCN(C)C=Nc1cc(Br)c(S(=O)(=O)c2ccccc2C#N)cc1C [Example I-070, N'-[5-bromo-4-(2-cyanophenyl)sulfonyl-2-methylphenyl]-N-ethyl-N-methylmethanimidamide]	1.34	–
CCN(C)C=Nc1cc(C#N)c(S(=O)(=O)c2ccccc2C)cc1C [Example I-059, N'-[5-cyano-2-methyl-4-(2-methylphenyl)sulfonylphenyl]-N-ethyl-N-methylmethanimidamide]	1.8	–
CCN(C)C=Nc1cc(F)c(S(=O)(=O)c2ccccc2C)cc1C [Example I-028, N-ethyl-N'-[5-fluoro-2-methyl-4-(2-methylphenyl)sulfonylphenyl]-N-methylmethanimidamide]	1.42	–
CCN(C)C=Nc1cc(C)c([S+]([O-])c2ccccc2C)cc1Cl (stereo not shown) [Example I-012, N'-[2-chloro-5-methyl-4-(2-methylphenyl)sulfinylphenyl]-N-ethyl-N-methylmethanimidamide]	0.97	–
CCN(C)C=Nc1cc(F)c([S+]([O-])c2ccccc2C)cc1C (stereo not shown) [Example I-032, N-ethyl-N'-[5-fluoro-2-methyl-4-(2-methylphenyl)sulfinylphenyl]-N-methylmethanimidamide]	1	–
CCc1cc(S(=O)(=O)c2ccccc2F)c(C)cc1N=CN(C)CC [Example I-084, N-ethyl-N'-[2-ethyl-4-(2-fluorophenyl)sulfonyl-5-methylphenyl]-N-methylmethanimidamide]	1.24	–
